Results taken from patent US12234245B2, “Sulfonimidamide compounds as inhibitors of interleukin-1 activity” (Genentech, Inc., priority 2018, dated 2025).

These compounds were tested against NLRP3 inflammasome (Homo sapiens, UniProt Q96P20) (assay: THP-1 ASC-GFP speck assay). Settings: THP-1 ASC-GFP cells, PMA differentiated, LPS primed, 10 μM nigericin; read-out: THP1 ASC Speck IC50.
Format: cell-based
Parameters: host or cells: THP-1 ASC-GFP cells, PMA-differentiated, LPS-primed, nigericin-stimulated
Procedure: THP-1 ASC-GFP cell line was purchased from Invivogen, San Diego, for inflammasome activation assay. THP-1 ASC-GFP cells stably express a 37.6 kDa ASC::GFP fusion protein that enables monitoring of spec formation by microscopy after activation of NLRP3 dependent inflammasome pathway. Cells were maintained at a density of 600,000 cells/mL in growth media consisting of RPMI 1640, 2 mM L-glutamine, 25 mM HEPES and 10% heat inactivated fetal bovine serum at 37° C. and 5% CO2. Cells were passaged every 3-4 days and used for assays for up to 20 passages.
THP-1 ASC-GFP cells were collected by centrifuging cells at 800 RPM for 5 minutes. Cell culture supernatant was removed and cells were re-suspended in fresh media at density of 1×10^6 cells/mL in assay media consisting of RPMI 1640, 2 mM L-glutamine, 25 mM HEPES and 10% heat inactivated fetal bovine serum. Phorbol 12-myristate 13-acetate (PMA) (Invivogen, tlrl-pma) was added to the cell suspension at a final concentration of 500 ng/ml and mixed thoroughly. 40,000 cells were added per well of a 384 well plate and differentiated into macrophages overnight at 37° C. and 5% CO2. Cells were primed with 1 μg/mL of lipopolysaccharide (Invivogen Ultrapure lipopolysaccharide from E. coli, tlrl-3pelps) in assay media for 3 hours at 37° C. and 5% CO2. After priming, media was removed and THP-1 ASC-GFP cells were preincubated with serially diluted test compounds with starting concentration of 40 μM followed by 2-fold dilution for a 20-point curve or vehicle (DMSO) for 30 min in assay media at 37° C. and 5% CO2. Cells were then stimulated with 10 μM nigericin (Invivogen, tlrl-nig-5) for 90 min at 37° C. and 5% CO2 to activate NLRP3 dependent inflammasome pathway and spec formation. After stimulation, cells were fixed with 4.8% paraformaldehyde (Electron Microscopy Sciences #15710-S) and incubated at room temperature for 15 min. Cells were then washed 3-times with 100 μL of phosphate buffered saline and permeabilized in the presence of premeablization/block buffer for 20 min at room temperature. Cells were then washed 3-times with 100 μL phosphate buffered saline and incubated for 1 hr at room temperature in the presence of hoechst. After staining with Hoechst, cells were washed 3-times with 100 μL phosphate buffered saline and imaged for ASC spec formation.
THP-1 ASC-GFP cells were imaged in 488 and Hoechst channels. Hoechst channel was used for cell count and 488 channel was used to identify number of GFP ASC specks in imaged fields. Percentage of cells with a spec was calculated by dividing the number of GFP positive spots by total number of cells.

Chain of NLRP3 inflammasome (Q96P20 whole entry): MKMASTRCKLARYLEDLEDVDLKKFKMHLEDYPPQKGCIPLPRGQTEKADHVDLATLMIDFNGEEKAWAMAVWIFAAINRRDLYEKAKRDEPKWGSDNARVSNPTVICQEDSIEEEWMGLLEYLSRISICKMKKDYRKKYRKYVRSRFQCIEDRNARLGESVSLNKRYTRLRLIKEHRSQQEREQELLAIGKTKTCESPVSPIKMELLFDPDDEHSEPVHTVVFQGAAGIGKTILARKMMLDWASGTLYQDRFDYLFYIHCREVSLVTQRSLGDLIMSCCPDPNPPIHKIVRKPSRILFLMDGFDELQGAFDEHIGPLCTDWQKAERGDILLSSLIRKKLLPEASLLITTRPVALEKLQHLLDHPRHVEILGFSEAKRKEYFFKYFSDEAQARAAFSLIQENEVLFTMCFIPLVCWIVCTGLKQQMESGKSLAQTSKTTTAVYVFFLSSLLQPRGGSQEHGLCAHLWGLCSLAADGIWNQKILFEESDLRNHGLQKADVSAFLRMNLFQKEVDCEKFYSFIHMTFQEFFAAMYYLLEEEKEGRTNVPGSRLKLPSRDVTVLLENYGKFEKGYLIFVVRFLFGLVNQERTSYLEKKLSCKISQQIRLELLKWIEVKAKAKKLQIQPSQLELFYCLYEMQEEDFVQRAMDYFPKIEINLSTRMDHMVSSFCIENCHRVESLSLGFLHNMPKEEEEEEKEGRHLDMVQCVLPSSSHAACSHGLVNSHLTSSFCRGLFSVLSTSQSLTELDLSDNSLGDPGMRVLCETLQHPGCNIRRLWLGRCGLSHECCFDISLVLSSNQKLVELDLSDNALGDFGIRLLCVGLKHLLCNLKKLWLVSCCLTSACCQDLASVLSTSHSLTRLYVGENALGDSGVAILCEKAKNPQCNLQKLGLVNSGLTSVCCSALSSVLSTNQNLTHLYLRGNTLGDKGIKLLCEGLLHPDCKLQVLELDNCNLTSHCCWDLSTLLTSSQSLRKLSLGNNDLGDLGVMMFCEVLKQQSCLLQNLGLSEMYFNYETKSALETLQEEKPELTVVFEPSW

Compound | IC50 [nM]
COC1COc2c(S(=O)(=NC(=O)Nc3c4c(cc5c3CCC5)CCC4)NC(C)=O)cnn2C1 (single isomer, unassigned) [Example 116] | 2100
NS(=O)(=NC(=O)Nc1c2c(cc3c1CCC3)CCC2)c1cnn2c1CCOCC2 (single isomer, unassigned) [Example 117] | 4300
NS(=O)(=NC(=O)Nc1c2c(cc3c1CCC3)CCC2)c1cnn2c1CCOCC2 (single isomer, unassigned) [Example 118] | > 20000
COc1cc(-c2cc(F)cc(C(C)C)c2NC(=O)N=S(N)(=O)c2cnn3c2OCCC3)ccn1 (single isomer, unassigned) [Example 120] | 1200
CO[C@@H]1CCOc2c([S@](=O)(=NC(=O)Nc3c4c(cc5c3CCC5)CCC4)NC#N)cnn2C1 (single isomer, unassigned) [Example 121] | 2700
CO[C@@H]1CCOc2c([S@@](=O)(=NC(=O)Nc3c4c(cc5c3CCC5)CCC4)NC#N)cnn2C1 (single isomer, unassigned) [Example 122] | 800
NS(=O)(=NC(=O)Nc1c2c(cc3c1CCC3)CCC2)c1cnn2c1OCC2 (single isomer, unassigned) [Example 125] | 1700
CC1CCc2cc3c(c(NC(=O)N=S(N)(=O)c4cnn5c4OCCC5)c21)CCC3 (single isomer, unassigned) [Example 126] | > 20000
CC1CCc2cc3c(c(NC(=O)N=S(N)(=O)c4cnn5c4OCCC5)c21)CCC3 (single isomer, unassigned) [Example 127] | 3300
CC1CCc2cc3c(c(NC(=O)N=S(N)(=O)c4cnn5c4OCCC5)c21)CCC3 (single isomer, unassigned) [Example 128] | 1700
CNC1CCn2ncc(S(N)(=O)=NC(=O)Nc3c4c(cc5c3CCC5)CCC4)c2OC1 (single isomer, unassigned) [Example 130] | 14000
CNC1CCn2ncc(S(N)(=O)=NC(=O)Nc3c4c(cc5c3CCC5)CCC4)c2OC1 (single isomer, unassigned) [Example 131] | 920
CNC1CCn2ncc(S(N)(=O)=NC(=O)Nc3c4c(cc5c3CCC5)CCC4)c2OC1 (single isomer, unassigned) [Example 132] | 1200
NS(=O)(=NC(=O)Nc1c2c(cc3c1CCC3)CCC2)c1cnn2c1C(F)(F)CCC2 (single isomer, unassigned) [Example 133] | 2800
NS(=O)(=NC(=O)Nc1c2c(cc3c1CCC3)CCC2)c1cnn2c1C(F)(F)CCC2 (single isomer, unassigned) [Example 134] | > 20000
CC1CCc2cc3c(c(NC(=O)N=S(N)(=O)c4cnn5c4OCC(C)(C)C5)c21)CCC3 (single isomer, unassigned) [Example 135] | > 20000
CC1CCc2cc3c(c(NC(=O)N=S(N)(=O)c4cnn5c4OCC(C)(C)C5)c21)CCC3 (single isomer, unassigned) [Example 136] | 3800
NS(=O)(=NC(=O)Nc1c2c(cc3c1CC3)CCC2)c1cnn2c1OCCC2 (single isomer, unassigned) [Example 141] | 1600
CC1CCc2cc3c(c(NC(=O)N=S(N)(=O)c4cnn5c4OCC5)c21)CCC3 (single isomer, unassigned) [Example 143] | 1200
CC1CCc2cc3c(c(NC(=O)N=S(N)(=O)c4cnn5c4OCC5)c21)CCC3 (single isomer, unassigned) [Example 145] | 3800
CC1CCc2cc3c(c(NC(=O)N=S(N)(=O)c4cnn5c4OCC5)c21)CCC3 (single isomer, unassigned) [Example 146] | 2600
COC1COc2c(S(N)(=O)=NC(=O)Nc3c4c(cc5c3C(C)CC5)CCC4)cnn2C1 (single isomer, unassigned) [Example 147] | > 20000
COc1cc(-c2ccc(NC(=O)N=S(N)(=O)c3cnn4c3OCC(OC)C4)c3c2CCC3)ccn1 (single isomer, unassigned) [Example 151] | > 20000
COc1cc(-c2ccc(NC(=O)N=S(N)(=O)c3cnn4c3OCC(OC)C4)c3c2CCC3)ccn1 (single isomer, unassigned) [Example 152] | 4100
CC1(C)COc2c(S(N)(=O)=NC(=O)Nc3c4c(cc5c3CC(F)C5)CCC4)cnn2C1 (single isomer, unassigned) [Example 153] | 1400
CC1(C)COc2c(S(N)(=O)=NC(=O)Nc3c4c(cc5c3CC(F)C5)CCC4)cnn2C1 (single isomer, unassigned) [Example 154] | 1800

Further lines, results first:

IC50 [nM] | Compound
58 | COc1cc(-c2cc(F)cc(C(C)C)c2NC(=O)N=S(N)(=O)c2cnn3c2OCCC3)ccn1 (single isomer, unassigned) [Example 119]
120 | CO[C@H]1CCOc2c([S@](=O)(=NC(=O)Nc3c4c(cc5c3CCC5)CCC4)NC#N)cnn2C1 (single isomer, unassigned) [Example 123]
54 | NS(=O)(=NC(=O)Nc1c2c(cc3c1CCC3)CCC2)c1cnn2c1OCC2 (single isomer, unassigned) [Example 124]
19 | CC1CCc2cc3c(c(NC(=O)N=S(N)(=O)c4cnn5c4OCCC5)c21)CCC3 (single isomer, unassigned) [Example 129]
28 | CC1CCc2cc3c(c(NC(=O)N=S(N)(=O)c4cnn5c4OCC(C)(C)C5)c21)CCC3 (single isomer, unassigned) [Example 137]
790 | CC1CCc2cc3c(c(NC(=O)N=S(N)(=O)c4cnn5c4OCC(C)(C)C5)c21)CCC3 (single isomer, unassigned) [Example 138]
4.3 | CC1(C)Cn2ncc(S(N)(=O)=NC(=O)Nc3c4c(cc5c3CCC5)CCC4)c2O1 (single isomer, unassigned) [Example 139]
560 | CC1(C)Cn2ncc(S(N)(=O)=NC(=O)Nc3c4c(cc5c3CCC5)CCC4)c2O1 (single isomer, unassigned) [Example 140]
84 | NS(=O)(=NC(=O)Nc1c2c(cc3c1CC3)CCC2)c1cnn2c1OCCC2 (single isomer, unassigned) [Example 142]
56 | CC1CCc2cc3c(c(NC(=O)N=S(N)(=O)c4cnn5c4OCC5)c21)CCC3 (single isomer, unassigned) [Example 144]
710 | COC1COc2c(S(N)(=O)=NC(=O)Nc3c4c(cc5c3C(C)CC5)CCC4)cnn2C1 (single isomer, unassigned) [Example 148]
650 | COC1COc2c(S(N)(=O)=NC(=O)Nc3c4c(cc5c3C(C)CC5)CCC4)cnn2C1 (single isomer, unassigned) [Example 149]
24 | COC1COc2c(S(N)(=O)=NC(=O)Nc3c4c(cc5c3C(C)CC5)CCC4)cnn2C1 (single isomer, unassigned) [Example 150]
8 | CC1(C)COc2c(S(N)(=O)=NC(=O)Nc3c4c(cc5c3CC(F)C5)CCC4)cnn2C1 (single isomer, unassigned) [Example 155]
13 | CC1(C)COc2c(S(N)(=O)=NC(=O)Nc3c4c(cc5c3CC(F)C5)CCC4)cnn2C1 (single isomer, unassigned) [Example 156]
710 | COc1cc(-c2ccc3c(c2NC(=O)N=S(N)(=O)c2cnn4c2OCCC4)CCO3)ccn1 (single isomer, unassigned) [Example 157]
25 | COc1cc(-c2ccc3c(c2NC(=O)N=S(N)(=O)c2cnn4c2OCCC4)CCO3)ccn1 (single isomer, unassigned) [Example 158]
140 | COC1CN([C@@H]2COc3c([S@@](=O)(=NC(=O)Nc4c5c(c(F)c6c4CCC6)CCC5)NC#N)cnn3C2)C1 (stereo in doubt) [Example 63, (R,6S)—N-cyano-N′-((8-fluoro-1,2,3,5,6,7-hexahydro-s-indacen-4-yl)carbamoyl)-6-(3-methoxyazetidin-1-yl)-6,7-dihydro-5H-pyrazolo[5,1-b][1,3]oxazine-3-sulfonimidamide, ammonia]
320 | CN(C)[C@@H]1COc2c([S@@](=O)(=NC(=O)Nc3c4c(c(F)c5c3CCC5)CCC4)NC#N)cnn2C1 [Example 104, (R,6S)—N-cyano-6-(dimethylamino)-N′-((8-fluoro-1,2,3,5,6,7-hexahydro-s-indacen-4-yl)carbamoyl)-6,7-dihydro-5H-pyrazolo[5,1-b][1,3]oxazine-3-sulfonimidamide]
